Laboratory results: ChEMBL document CHEMBL3507680, “University of Dundee, Gates Library screen for HepG2 cell viability”

assay: Human HepG2 cell viability assay in 384 well format; format: toxicity, cell-based; parameters: dose 125 nL, time 70.5 hour; cytotoxicity at 70.5 h: concentration not given beside the values; settings: HepG2 cells, read-out: Inhibition

| Compound | cytotoxicity at 70.5 h [%] |
| --- | --- |
| CN(Cc1cc(C(C)(C)C)n[nH]1)C(=O)c1c[nH]nc1-c1cccc(F)c1 | -8 |
| O=C(CC1CCCO1)Nc1ccn(Cc2cccc3cccnc23)n1 (stereo unspecified) | -6.79 |
| CCn1nc(C)c(NC(=O)c2cc(NC(=O)C(C)C)n(C)n2)c1C | -5.54 |
| COC(=O)[C@@H](Nc1nc(C2CCCC2)nc2c1cnn2C)[C@@H](C)O | -11.8 |
| CCOCc1cnc2n1CCN(C(=O)c1ccccc1)C2C (stereo unspecified) | 19.2 |
| C[C@@H]1CN(CC(C)(C)N2CCOCC2)CC[C@@]1(O)C1CCOCC1 | 7.82 |
| NC(=O)COc1ccc(CN2CCC3(CC2)[C@H](O)C[C@@H]3O)cc1Cl | 19.2 |
| O=C(NCC(O)c1ccc(F)cc1F)c1ccccc1 (stereo unspecified) | -4.27 |
| CCC(CNC(=O)Nc1cnn(CC)c1)N1CCc2ccccc2C1 (stereo unspecified) | -4.26 |
| CCN(CC)S(=O)(=O)c1cc2c3c(c1)c(C)cc(=O)n3CC2 | 3.57 |
| Cn1cc(S(=O)(=O)NCC(C)(O)c2ccsc2)cn1 (stereo unspecified) | 1.13 |
| O=C(CN(C1=NCCCC1)c1ccccc1)c1ccc(OC(F)F)cc1 | -4.12 |
| CC(=O)NC1CCCN(C(=O)CNc2cc(Cl)cc(Cl)c2)C1 (stereo unspecified) | -5.65 |
| O=c1c2cccnc2cnn1CC(O)c1cccc(C(F)(F)F)c1 (stereo unspecified) | 11.1 |
| CCc1ocnc1C(=O)N1CCC(C2CCN(c3ncccn3)CC2)C1 (stereo unspecified) | 1.07 |
| CC1(NC(=O)Cc2csc(NC(=O)c3ccccc3)n2)CCS(=O)(=O)C1 (stereo unspecified) | -71.2 |
| O=C1C(Sc2nnnn2C2CC2)CCN1c1ccccc1F (stereo unspecified) | -3.39 |
| Cc1nn(C(C)C)c(C)c1NC(=O)c1ccncc1 | -5.05 |
| Cn1ncc2c1CCCC2NCc1cnc(-c2ccccc2)nc1 (stereo unspecified) | -0.439 |

| Compound | cytotoxicity at 70.5 h [%] |
| --- | --- |
| Cc1nc(-c2cccc(C#N)c2)nn1CC1(O)CCCCC1 | 3.88 |
| Cc1noc(C)c1-c1ccc(C2CCCN2CCC(N)=O)nc1 (stereo unspecified) | -3.28 |
| CCS(=O)(=O)c1ccc2c(c1)N1CCS(=O)(=O)N=C1O2 | -15.4 |
| O=C1NCCCC[C@@H]1NC(=O)C1(N2CCCCC2)Cc2ccccc2C1 | -4.27 |
| CC(=O)N1CCC(Nc2ccc(Br)cc2C#N)C1 (stereo unspecified) | 4.92 |
| CN(C)CCNC(=O)c1ccc(S(=O)(=O)N[C@@H]2CCNC2)cc1 | -13.7 |
| Cc1cc(N2CCC(CO)(CC3CCCCO3)CC2)c2ccccc2n1 (stereo unspecified) | 2.86 |
| Cc1nc(CN2CCCN(Cc3nccn3C(C)C)CC2)no1 | -15.2 |
| O=C(Cn1c(=O)oc2ccccc21)N1Cc2cncnc2C1 | -5.29 |
| O=C(CC1OCCc2ccccc21)NCCn1cccc1 (stereo unspecified) | -4.75 |
| COc1cccc2sc(N(C)CC(=O)NCc3nc(C)no3)nc12 | -3.58 |
| NC(=O)Cc1ccc(OCc2noc(C(=O)N3CCCC3)n2)cc1 | -23.4 |
| CNC(=O)[C@@H]1C[C@@H](NC(=O)CCCc2cccs2)CN1C1CCOCC1 | -1.92 |
| COc1ccc(Cl)cc1CS(=O)(=O)Cc1noc(C)n1 | 12.6 |
| O=C(NCCn1cccc1)C(c1cccnc1)N1CCCC1 (stereo unspecified) | -0.962 |
| O=C(c1ccno1)N1CCC2(CC(=O)N(c3ccc4c(c3)OCO4)C2)C1 (stereo unspecified) | -0.613 |
| Cc1ccc(C(=O)N2C[C@@H]3COC[C@]3(COc3cccnc3)C2)cn1 | 12.6 |
| N#CCCN(Cc1ccccn1)Cn1cc(Cl)cn1 | 29.9 |
| O=C(C[C@H]1[C@H]2CN(Cc3ccc(F)cc3)C[C@@H]12)N1CCCC1 | -3.22 |

| Compound | cytotoxicity at 70.5 h [%] |
| --- | --- |
| CCc1cc(NCCC(F)(F)F)nc(N2CCOCC2)n1 | -7.87 |
| CCCn1nc2c(cc1=O)CN(CC(=O)Nc1nnc(C)s1)CC2 | -22 |
| Oc1nnc(-c2cccs2)c2sc(N3CCCC3)nc12 | -6.61 |
| c1cnc(N2CCC3(CCN(Cc4cccnc4)CC3)CC2)nc1 | -8.42 |
| CCOC(=O)N1CCN(c2nc(N)c3ccccc3n2)CC1 | -7.74 |
| COc1ccccc1C(=O)N1CCC(Oc2ccc(C#N)cn2)CC1 | -2.18 |
| O=C(NCc1ccccc1Cl)c1[nH]nc2c1CS(=O)(=O)CC2 | -5.21 |
| CC(C)(C)NS(=O)(=O)c1cc(NC(=O)C2CC2)ccc1F | -5.03 |
| NC(=O)NC(CC(=O)N1CCc2sccc2C1)c1ccccc1F (stereo unspecified) | -17.5 |
| Cc1cc(C)c2c(N(C)CC3COCCO3)ncnc2n1 (stereo unspecified) | -8.16 |
| CO[C@H]1CN(Cc2ccc(C)o2)[C@@H]2CCCO[C@H]12 | 13.3 |
| CS(=O)(=O)Cc1ccccc1NCc1cc(Cl)ccc1Cl | 3.86 |
| CCN(Cc1cccc(C)c1)Cc1nc2c(cnn2C)c(=O)[nH]1 | -2.57 |
| CCc1nc(CNC(=O)Nc2nc(COC)cs2)cs1 | -5.86 |
| COCC(=O)N1CCC(C(=O)N(C)CCCc2nccn2C)CC1 | 1.13 |
| NC(=O)COc1ccc(CN2CCNC(C(=O)NC3CC3)C2)cc1Cl (stereo unspecified) | -10.1 |
| Cc1cc(C(=O)N2CCC(n3nc(C)cc3C)C2)c2ccc(F)cc2n1 (stereo unspecified) | -9.21 |
| COc1cc(N2CC[C@@H]3O[C@@H](c4ccncn4)C[C@H]3C2)ncn1 | 7.96 |
